Data reported in US10526323B2, “Indazole and azaindazole substituted compounds as mGluR4 allosteric potentiators, compositions, and methods of treating neurological dysfunction” (Vanderbilt University, priority 2015, dated 2020).

Target: mGluR4 (UniProt Q14833)
Assay: mGluR4 potentiation assay: increase in response to an EC20 concentration of agonist (species not given)
Assay type: cell-based
Settings: EC50 for potentiation of mGluR4; table does not state human or rat
In short: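 Human mGluR4 was expressed in CHO cells read with a Ca2+-sensitive dye; rat mGluR4 was co-expressed with GIRK in […] read by thallium flux. Potentiation is the rise over agonist-alone response, with EC50 and maximal potentiation from non-linear fits.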

| SMILES | EC50 [µM] |
| --- | --- |
| CC(C)n1nc(C2CC2)c2ccc(Nc3n[nH]c4cccnc34)cc21 [Example 16, N-(3-cyclopropyl-1-isopropyl-1H-indazol-6-yl)-1H-pyrazolo[4,3-b]pyridin-3-amine] | > 10 |
| Cc1nn(C2CCOCC2)c2ccc(Nc3n[nH]c4cccnc34)cc12 [Example 117, N-(3-methyl-1-(tetrahydro-2H-pyran-4-yl)-1H-indazol-5-yl)-1H-pyrazolo[4,3-b]pyridin-3-amine] | 1.46 |
| Cn1ncc2c(Cl)cc(Nc3n[nH]c4nccnc34)cc21 [Example 8, N-(4-chloro-1-methyl-1H-indazol-6-yl)-1H-pyrazolo[3,4-b]pyrazin-3-amine] | 0.016 |
| Cn1cc2cc(Nc3n[nH]c4nccnc34)ccc2n1 [Example 83] | 0.202 |
| Cc1cc(COc2nn(C)c3cc(Nc4n[nH]c5cccnc45)ccc23)on1 [Example 45, N-(1-methyl-3-((3-methylisoxazol-5-yl)methoxy)-1H-indazol-6-yl)-1H-pyrazolo[4,3-b]pyridin-3-amine] | 0.104 |
| Cc1c2cc(Nc3n[nH]c4cccnc34)ccc2nn1C1CCCC1 [Example 68, N-(2-cyclopentyl-3-methyl-2H-indazol-5-yl)-1H-pyrazolo[4,3-b]pyridin-3-amine] | > 10 |
| Cn1nc(NC(=O)C(F)(F)F)c2ccc(Nc3n[nH]c4cccnc34)cc21 [Example 25, N-(6-((1H-pyrazolo[4,3-b]pyridin-3-yl)amino)-1-methyl-1H-indazol-3-yl)-2,2,2-trifluoroacetamide] | 0.313 |
| C=C(C)Cn1nc(C)c2cc(Nc3n[nH]c4nccnc34)ccc21 [Example 128, N-(3-methyl-1-(2-methylallyl)-1H-indazol-5-yl)-1H-pyrazolo[3,4-b]pyrazin-3-amine] | 0.049 |
| Cc1ccccc1Cc1nn(C)c2cc(Nc3n[nH]c4cccnc34)ccc12 [Example 48, N-(1-methyl-3-(2-methylbenzyl)-1H-indazol-6-yl)-1H-pyrazolo[4,3-b]pyridin-3-amine] | 4.4 |
| COCCn1nc(C)c2cc(Nc3n[nH]c4cccnc34)ccc21 [Example 133, N-(1-(2-methoxyethyl)-3-methyl-1H-indazol-5-yl)-1H-pyrazolo[4,3-b]pyridin-3-amine] | 0.379 |
| Cc1nn(CC2CCCC2)c2ccc(Nc3n[nH]c4cccnc34)cc12 [Example 106, N-(1-(cyclopentylmethyl)-3-methyl-1H-indazol-5-yl)-1H-pyrazolo[4,3-b]pyridin-3-amine] | 0.145 |
| Cc1nn(CC2CC2)c2ncc(Nc3n[nH]c4cccnc34)cc12 [Example 257, 1-(cyclopropylmethyl)-3-methyl-N-(1H-pyrazolo[4,3-b]pyridin-3-yl)pyrazolo[3,4-b]pyridin-5-amine] | > 10 |
| Cc1cc(Cn2nc(Cl)c3cc(Nc4n[nH]c5cccnc45)ccc32)on1 [Example 277, N-(3-chloro-1-((3-methylisoxazol-5-yl)methyl)-1H-indazol-5-yl)-1H-pyrazolo[4,3-b]pyridin-3-amine] | 0.31 |
| CCCn1nc(C)c2cc(Nc3n[nH]c4cccnc34)ccc21 [Example 113, N-(3-methyl-1-propyl-1H-indazol-5-yl)-1H-pyrazolo[4,3-b]pyridin-3-amine] | 0.123 |
| C=C(c1nn(C)c2cc(Nc3n[nH]c4cccnc34)ccc12)C(F)(F)F [Example 40, N-(1-methyl-3-(3,3,3-trifluoroprop-1-en-2-yl)-1H-indazol-6-yl)-1H-pyrazolo[4,3-b]pyridin-3-amine] | 0.147 |
| Cn1ncc2cc(Nc3n[nH]c4cccnc34)ccc21 [Example 55, N-(1-methyl-1H-indazol-5-yl)-1H-pyrazolo[4,3-b]pyridin-3-amine] | 0.79 |
| CC(C)n1ncc2cc(Nc3n[nH]c4cccnc34)cc(Cl)c21 [Example 58, N-(7-chloro-1-isopropyl-1H-indazol-5-yl)-1H-pyrazolo[4,3-b]pyridin-3-amine] | 2.29 |
| Cn1nc(C2CC2)c2ccc(Nc3n[nH]c4nccnc34)cc21 [Example 4, N-(3-cyclopropyl-1-methyl-1H-indazol-6-yl)-1H-pyrazolo[3,4-b]pyrazin-3-amine] | 0.02 |
| CCc1nn(C)c2cc(Nc3n[nH]c4cccnc34)ccc12 [Example 24, N-(3-ethyl-1-methyl-1H-indazol-6-yl)-1H-pyrazolo[4,3-b]pyridin-3-amine] | 0.038 |
| c1cnc2c(Nc3ccc4c(C5CC5)n[nH]c4c3)n[nH]c2c1 [Example 247, N-(3-cyclopropyl-1H-indazol-6-yl)-1H-pyrazolo[4,3-b]pyridin-3-amine] | 0.452 |
| CC(C)n1ncc2cc(Nc3n[nH]c4nccnc34)cc(Cl)c21 [Example 60, N-(7-chloro-1-isopropyl-1H-indazol-5-yl)-1H-pyrazolo[3,4-b]pyrazin-3-amine] | 0.79 |
| c1ccc2c(Nc3cnc4cnn(CC5CCC5)c4c3)n[nH]c2c1 [Example 27, 1-(cyclobutylmethyl)-N-(1H-indazol-3-yl)-1H-pyrazolo[4,3-b]pyridin-6-amine] | > 10 |
| Cn1nc(Oc2cccc(C#N)n2)c2ccc(Nc3n[nH]c4cccnc34)cc21 [Example 231, 6-((6-((1H-pyrazolo[4,3-b]pyridin-3-yl)amino)-1-methyl-1H-indazol-3-yl)oxy)picolinonitrile] | 0.119 |
| Cn1nc(C2CC2)c2ccc(Nc3n[nH]c4c3CC(F)(F)CC4)cc21 [Example 14, 3-cyclopropyl-N-(5,5-difluoro-4,5,6,7-tetrahydro-1H-indazol-3-yl)-1-methyl-1H-indazol-6-amine] | > 10 |
| Cn1nc(OCC2CC2)c2ccc(Nc3n[nH]c4cccnc34)cc21 [Example 185, N-(3-(cyclopropylmethoxy)-1-methyl-1H-indazol-6-yl)-1H-pyrazolo[4,3-b]pyridin-3-amine] | 0.164 |
| Cc1nn(C2CCC2)c2ccc(Nc3n[nH]c4cccnc34)cc12 [Example 107, N-(1-cyclobutyl-3-methyl-1H-indazol-5-yl)-1H-pyrazolo[4,3-b]pyridin-3-amine] | 0.374 |

Continued, values first:

| EC50 [µM] | SMILES |
| --- | --- |
| 2.43 | CCCCn1nc(Cl)c2cc(Nc3n[nH]c4cccnc34)ccc21 [Example 281, N-(1-butyl-3-chloro-1H-indazol-5-yl)-1H-pyrazolo[4,3-b]pyridin-3-amine] |
| 0.025 | Cn1nc(C2(C)CC2)c2ccc(Nc3n[nH]c4nccnc34)cc21 [Example 29, N-(1-methyl-3-(1-methylcyclopropyl)-1H-indazol-6-yl)-1H-pyrazolo[3,4-b]pyrazin-3-amine] |
| 0.48 | CCn1nc(C)c2cc(Nc3n[nH]c4cccnc34)cnc21 [Example 258, 1-ethyl-3-methyl-N-(1H-pyrazolo[4,3-b]pyridin-3-yl)pyrazolo[3,4-b]pyridin-5-amine] |
| 0.218 | [2H]C([2H])([2H])n1nc(C)c2cc(Nc3n[nH]c4cccnc34)ccc21 [Example 123, N-(3-methyl-1-(methyl-d3)-1H-indazol-5-yl)-1H-pyrazolo[4,3-b]pyridin-3-amine] |
| > 10 | Cn1nc(C(=O)N2CCC(C(N)=O)CC2)c2ccc(Nc3n[nH]c4cccnc34)cc21 [Example 161, 1-[1-methyl-6-(1H-pyrazolo[4,3-b]pyridin-3-ylamino)indazole-3-carbonyl]piperidine-4-carboxamide] |
| > 10 | c1cnc2c(Nc3cnc4cnn(CC5CCC5)c4c3)n[nH]c2c1 [Example 142, N-(1-(cyclobutylmethyl)-1H-pyrazolo[4,3-b]pyridin-6-yl)-1H-pyrazolo[4,3-b]pyridin-3-amine] |
| 0.15 | Cc1cc(Nc2n[nH]c3nccnc23)cc2c1cnn2C [Example 51, N-(1,4-dimethyl-1H-indazol-6-yl)-1H-pyrazolo[3,4-b]pyrazin-3-amine] |
| 0.24 | Cc1nn(CC(F)(F)F)c2ncc(Nc3n[nH]c4cccnc34)cc12 [Example 253, 3-methyl-N-(1H-pyrazolo[4,3-b]pyridin-3-yl)-1-(2,2,2-trifluoroethyl)pyrazolo[3,4-b]pyridin-5-amine] |
| 0.867 | COC(=O)Cn1nc(C)c2cc(Nc3n[nH]c4cccnc34)ccc21 [Example 118, methyl 2-(5-((1H-pyrazolo[4,3-b]pyridin-3-yl)amino)-3-methyl-1H-indazol-1-yl)acetate] |
| 1.23 | Cn1nc(C2CC2)c2ccc(Nc3n[nH]c4ccc(F)cc34)cc21 [Example 7, N-(3-cyclopropyl-1-methyl-1H-indazol-6-yl)-5-fluoro-1H-indazol-3-amine] |
| > 10 | Cc1nn(CCO)c2ccc(Nc3n[nH]c4cccnc34)cc12 [Example 94, 2-(5-((1H-pyrazolo[4,3-b]pyridin-3-yl)amino)-3-methyl-1H-indazol-1-yl)ethan-1-ol] |
| 0.133 | Cc1nn(C(C)C)c2ccc(Nc3n[nH]c4cccnc34)cc12 [Example 61, N-(1-isopropyl-3-methyl-1H-indazol-5-yl)-1H-pyrazolo[4,3-b]pyridin-3-amine] |
| 0.16 | [2H]C([2H])([2H])n1nc(C2CC2)c2ccc(Nc3n[nH]c4ncccc34)cc21 [Example 43, N-(3-cyclopropyl-1-(methyl-d3)-1H-indazol-6-yl)-1H-pyrazolo[3,4-b]pyridin-3-amine] |
| 0.323 | Cc1cc(Nc2n[nH]c3cccnc23)cc2c1cnn2C [Example 50, N-(1,4-dimethyl-1H-indazol-6-yl)-1H-pyrazolo[4,3-b]pyridin-3-amine] |
| 0.198 | Cn1nc(OCC(F)(F)F)c2ccc(Nc3n[nH]c4cccnc34)cc21 [Example 182, N-(1-methyl-3-(2,2,2-trifluoroethoxy)-1H-indazol-6-yl)-1H-pyrazolo[4,3-b]pyridin-3-amine] |
| 0.116 | Cn1nc(C(=O)NC2CC(F)(F)C2)c2ccc(Nc3n[nH]c4cccnc34)cc21 [Example 174] |
| 0.01 | [2H]C([2H])([2H])n1nc(C2CC2)c2ccc(Nc3n[nH]c4nccnc34)cc21 [Example 22, N-(3-cyclopropyl-1-(methyl-d3)-1H-indazol-6-yl)-1H-pyrazolo[3,4-b]pyrazin-3-amine] |
| 0.289 | Cn1nc(C(=O)N2CCC(F)(F)C2)c2ccc(Nc3n[nH]c4cccnc34)cc21 [Example 172, (3,3-difluoropyrrolidin-1-yl)-[1-methyl-6-(1H-pyrazolo[4,3-b]pyridin-3-ylamino)indazol-3-yl]methanone] |
